PMC8002023, “3D Pharmacophore-Based Discovery of Novel KV10.1 Inhibitors with Antiproliferative Activity” (Cancers, 2021)
Where two headings read alike, the source gives them in different places.

Assays:
[1] = system: Salmonella typhimurium strain TA100; test: Salmonella/microsomal reverse mutation (Ames) assay, TA100; set-up: key to bacterial background lawn: slightly reduced bacterial background; moderately reduced bacterial background; extremely reduced bacterial background; bacterial background is absent; conditions: for mutagenic response: TA100, 0.0158–0.158 mg/plate, −S9 and +S9; for cytotoxic concentration to bacterial strain: TA100, −/+ S9 metabolic activation; for induction factor (IF): IF ≥ 2 positive
Procedure: Mutagenicity of compounds ZVS-08 and 8 was tested with the Salmonella/microsomal reverse mutation (Ames) assay on Salmonella typhimurium strains TA98 and TA100 without and with external metabolic activation according to the OECD guidelines (OECD TG 471) with minor modifications. Briefly, 100 µL of ZVS-08 and 8 (0.158, 0.5, 1.58, 5, 15.8, and 50 mg/mL corresponding to the final concentration of 0.0158, 0.05, 0.158, 0.5, 1.58, and 5 mg/plate, respectively), […] bacterial culture of S. typhimurium (overnight culture at 37 °C), and […] of phosphate buffer (for assays without metabolic activation) or 10% S9 mix (for assays with metabolic activation) were added to 2 mL of molten top agar (supplemented with histidine/biotin, final concentration 0.05 mM), gently mixed and poured onto minimal agar plates. The number of His+ revertants was counted after 48 h (TA100) and 72 h (TA98) of incubation at 37 °C. Three plates were used per treatment point. The mutagenic potential of the compounds was expressed as an induction factor (IF), where IF = (number of revertants in the presence of the compound)/(number of revertants in solvent control). Additionally, each plate was checked for possible toxic effects of tested compounds. […] 4-nitroquinoline- N-oxide (4-NQNO; 0.25 μg/plate) for TA98 and sodium azide (NaN3; 0.25 μg/plate) for TA100 were used as positive controls without S9 metabolic activation, while benzo[a]pyrene (B[a]P; 2.5 μg/plate) was used as positive controls for both bacterial strains with S9 metabolic activation.

[2] = molecular target: T1, KV10.1 (Homo sapiens, UniProt O95259); test: Whole-cell patch clamp on HEK-293 cells stably expressing KV10.1; format: cell-based
T1 construct: expressed in transfected cells
T1 sequence (O95259 1-962 isoform O95259-2): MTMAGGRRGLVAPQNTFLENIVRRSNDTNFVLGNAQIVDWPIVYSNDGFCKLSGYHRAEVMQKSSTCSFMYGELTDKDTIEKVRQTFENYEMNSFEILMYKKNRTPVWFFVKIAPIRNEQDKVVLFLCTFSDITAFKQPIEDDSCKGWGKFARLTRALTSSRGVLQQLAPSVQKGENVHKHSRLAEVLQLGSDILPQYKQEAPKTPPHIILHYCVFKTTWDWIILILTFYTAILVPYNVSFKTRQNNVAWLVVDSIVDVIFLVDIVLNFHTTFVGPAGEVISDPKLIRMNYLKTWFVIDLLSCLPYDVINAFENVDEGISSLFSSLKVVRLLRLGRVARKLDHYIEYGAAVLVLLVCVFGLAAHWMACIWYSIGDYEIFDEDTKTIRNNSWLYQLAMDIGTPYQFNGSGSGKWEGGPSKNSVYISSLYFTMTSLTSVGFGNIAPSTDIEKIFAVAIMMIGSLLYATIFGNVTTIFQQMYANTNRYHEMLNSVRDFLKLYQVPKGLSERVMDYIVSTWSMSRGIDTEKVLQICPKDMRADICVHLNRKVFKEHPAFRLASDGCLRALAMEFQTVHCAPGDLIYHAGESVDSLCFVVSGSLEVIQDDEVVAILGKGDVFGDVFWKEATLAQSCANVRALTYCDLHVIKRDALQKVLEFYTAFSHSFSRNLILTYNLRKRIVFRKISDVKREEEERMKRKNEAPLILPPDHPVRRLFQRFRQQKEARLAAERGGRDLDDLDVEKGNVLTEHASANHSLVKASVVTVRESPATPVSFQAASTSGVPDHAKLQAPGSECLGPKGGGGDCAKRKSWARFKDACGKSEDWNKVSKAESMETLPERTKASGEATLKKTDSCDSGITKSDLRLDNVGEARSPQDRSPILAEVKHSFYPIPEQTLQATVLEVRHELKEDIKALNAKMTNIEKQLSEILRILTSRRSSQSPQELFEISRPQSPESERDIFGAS
Procedure: Whole-cell patch clamp experiments were performed on stably transfected HEK-293 cells. The cells were grown on fibronectin-coated glass coverslips in DMEM supplemented with 10% FCS and 300 µg/mL Zeocin. Experiments were performed at room temperature under continuous perfusion. The extracellular solution contained (mM) 160 NaCl, 2.5 KCl, 2 CaCl2, 1 MgCl2, 10 Hepes/NaOH, pH 7.4, 8 glucose. For the experiments determining conductance–voltage relationships, tail currents were made visible by substituting 60 mM NaCl by KCl ([…], 100 NaCl). Pipettes were pulled from #1 glass capillaries (WPI) to resistances of 1–3 MΩ when loaded with the intracellular solution (100 KCl, 45 N-methyl-D-glucamine, 10 1,2-bis(o-aminophenoxy)ethane-N,N,N′,N′-tetraacetic acid (BAPTA), 10 Hepes pH 7.35). Data acquisition was performed using a EPC10 Plus amplifier (HEKA Elektronik) and Patch Master software. Drug application was performed using an 8-channel fast solution exchanger (ALA). All compounds were dissolved in DMSO to a final concentration of 10 mM. 0.5% DMSO in extracellular solution served as control. KV10.1 currents were elicited by 500 ms depolarisations to +40 mV under continuous perfusion with the compound-containing or control solution. hERG current amplitudes were measured as the peak tail current during a 4 s repolarization to −40 mV after a depolarising pulse to +20 mV lasting for 2 s.
The nine selected in silico hits were tested by manual patch-clamp on a HEK293 cell line stably expressing KV10.1 [33] at a compound concentration of 50 μM (Table 1). Compound activity was tested by determining the current amplitude elicited by repetitive stimuli to +40 mV from a holding potential of −80 mV. […] The hit compound ZVS-08 represents a new structural class of KV10.1 inhibitors with diarylamine structure and has a unique structure among the acquired virtual screening hits. […] The most notable change from the purpurealidin analogues is the replacement of the hydrogen bond acceptor group of the amide bond with the oxygen atom of the nitro group of ZVS-08.

[3] = HEK-293, 500 ms depolarisation to +40 mV, read-out: IC50 Kv10.1

`O=[N+]([O-])c1cc(C(F)(F)F)ccc1Nc1ccc(OCC(O)CN2CCOCC2)cc1` (stereo not drawn) [Compound 8] was tested, and the “mutagenic response” value [1] was “no mutagenic response”, the “cytotoxic concentration to bacterial strain” value [1] was ≥ 0.5 mg/plate and the IC50 [2, 3] was 1010 nM.
In the case of `CN(C)CC(O)COc1ccc(Nc2ccc(C(F)(F)F)cc2[N+](=O)[O-])cc1` (stereo not drawn) [ZVS-08], the “mutagenic response” value [1] is reported as “no mutagenic response”, the “Average number of revertant colonies (mean ± SD)” value (“Average number … (mean ± SD)” for short) ([1]; TA100, +S9, 0.0158 mg/plate) is reported as 102.67 ± 15.01 and the “induction factor (IF)” value ([1]; TA100, +S9, 0.0158 mg/plate) is reported as 1.02. The “Average number … (mean ± SD)” value ([1]; TA100, +S9, 0.05 mg/plate) was 81.67 ± 14.57, the “induction factor (IF)” value ([1]; TA100, +S9, 0.05 mg/plate) was 0.81 and the “Average number … (mean ± SD)” value ([1]; TA100, +S9, 0.158 mg/plate) was 71.00 ± 7.21. The bacterial background lawn ([1]; TA100, +S9, 0.158 mg/plate) was “a”, the “induction factor (IF)” value ([1]; TA100, +S9, 0.158 mg/plate) was 0.71 and the “Average number … (mean ± SD)” value ([1]; TA100, +S9, 0.5 mg/plate) was 0. The bacterial background lawn ([1]; TA100, +S9, 0.5 mg/plate) was “b”, the “Average number … (mean ± SD)” value ([1]; TA100, +S9, 1.58 mg/plate) was 0 and the bacterial background lawn ([1]; TA100, +S9, 1.58 mg/plate) was “d”. For the same compound, the “Average number … (mean ± SD)” value ([1]; TA100, +S9, 5 mg/plate) was 0, the bacterial background lawn ([1]; TA100, +S9, 5 mg/plate) was “d” and the “Average number … (mean ± SD)” value ([1]; TA100, -S9, 0.0158 mg/plate) was 114.00 ±2.00. The “induction factor (IF)” value ([1]; TA100, -S9, 0.0158 mg/plate) was 1.29, the “Average number … (mean ± SD)” value ([1]; TA100, -S9, 0.05 mg/plate) was 99.67 ± 16.80 and the “induction factor (IF)” value ([1]; TA100, -S9, 0.05 mg/plate) was 1.12. The “Average number … (mean ± SD)” value ([1]; TA100, -S9, 0.158 mg/plate) was 81.00 ± 5.29, the bacterial background lawn ([1]; TA100, -S9, 0.158 mg/plate) was “a” and the “induction factor (IF)” value ([1]; TA100, -S9, 0.158 mg/plate) was 0.91. For the same compound, the “Average number … (mean ± SD)” value ([1]; TA100, -S9, 0.5 mg/plate) was 0, the bacterial background lawn ([1]; TA100, -S9, 0.5 mg/plate) was “c” and the “Average number … (mean ± SD)” value ([1]; TA100, -S9, 1.58 mg/plate) was 0. For the same compound, the bacterial background lawn ([1]; TA100, -S9, 1.58 mg/plate) was “d”, the “Average number … (mean ± SD)” value ([1]; TA100, -S9, 5 mg/plate) was 0 and the bacterial background lawn ([1]; TA100, -S9, 5 mg/plate) was “d”. The “cytotoxic concentration to bacterial strain” value [1] was ≥ 0.5 mg/plate, the inhibition at 50 µM ([2]; HEK293, compound concentration 50 μM, stimuli to +40 mV, mean ± standard error, read-out: Effect on Kv10.1 (% Inhibition)) was 80.27 ± 0.63% and the IC50 [2, 3] was 3700 nM. For the same compound, the “semi-maximal activation (conductance–voltage relationship)” value ([2]; in the presence of 5 µM ZVS-08, 4.39 ± 1.9 mV in the absence) was −29.88 ± 1.8 mV, the IC50 ([2]; same IC50 in presence and absence of 500 nM astemizole, end of 500 ms pulse to +40 mV, read-out: IC50 Kv10.1, competition with astemizole) was 1690 nM and the IC50 ([2]; same IC50 in presence and absence of 1 µM mibefradil, end of 500 ms pulse to +40 mV, read-out: IC50 Kv10.1, competition with mibefradil) was 1470 nM.
